What follows are molecules tested against T1, CD80-CD28 interaction (Homo sapiens, UniProt P33681) (assay: cell free Homogenous Time Resolved Fluorescence (HTRF) assay, inhibition of the CD80-CD28 interaction). Settings: 4 hours at room temperature, read-out: Activity (EC50 in summary form).
T1 construct: mouse Fab fragment (fusion partner)
T1 sequence (P33681 35-242 limits assumed): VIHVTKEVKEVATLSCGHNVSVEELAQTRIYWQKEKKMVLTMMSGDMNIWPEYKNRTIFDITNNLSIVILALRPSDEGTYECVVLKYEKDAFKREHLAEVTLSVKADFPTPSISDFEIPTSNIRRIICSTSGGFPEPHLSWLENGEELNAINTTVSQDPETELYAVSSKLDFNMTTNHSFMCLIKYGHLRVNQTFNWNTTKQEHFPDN
Assay type: binding
Procedure: The examples described above were tested in a cell free Homogenous Time Resolved Fluorescence (HTRF) assay to determine their activity as inhibitors of the CD80-CD28 interaction.
In the assay, europium and allophycocyanin (APC) are associated with CD28 and CD80 indirectly (through antibody linkers) to form a complex, which brings the europium and APC into close proximity to generate a signal. The complex comprises the following six proteins: fluorescent label 1, linker antibody 1, CD28 fusion protein, CD80 fusion protein, linker antibody 2, and fluorescent label 2. The table below describes these reagents in greater detail.
On formation of the complex, europium and APC are brought into proximity and a signal is generated.
Non-specific interaction was measured by substituting a mouse Fab fragment (C215) for the CD80 mouse Fab fragment fusion protein (1.9 μg/ml). The assay was carried out in black 384 well plates in a final volume of 30 μl. Assay buffer: 50 mM Tris-HCl, 150 mM NaCl pH7.8, containing 0.1% BSA (w/v) added just prior to use.
Compounds were added to the above reagents in a concentration series ranging between 100 μM-1.7 nM. The reaction was incubated for 4 hours at room temperature. Dual measurements were made using a Wallac Victor 1420 Multilabel Counter. First measurement: excitation 340 nm, emission 665 nm, delay 50 μs, window time 200 μs. second measurement: excitation 340 nm, emission 615 nm, delay 50 μs, window time 200 μs. Counts were automatically corrected for fluorescence crossover, quenching and background.

EC50 [nM] | Compound
1000 to 10000 | O=C(NCCN1CCN(Cc2ccccc2)CC1)c1ccc(-n2nc3c4ccccc4[nH]cc-3c2=O)cc1 [Example 94]
< 1000 | O=C(NCCCN1CCN(Cc2c(F)cccc2Cl)CC1)c1ccc(-n2nc3c4cccc(F)c4[nH]cc-3c2=O)cc1 [Example 95]
< 1000 | CCN(CC)CCCC(C)NC(=O)c1ccc(-n2nc3c4cccc(F)c4[nH]cc-3c2=O)cc1 (stereo not shown) [Example 97]
< 1000 | CN1CCN(CCCNC(=O)c2ccc(-n3nc4c5cccc(F)c5[nH]cc-4c3=O)cc2)CC1 [Example 98]
1000 to 10000 | O=C(NCCCCN1CCCC1)c1ccc(-n2nc3c4cccc(F)c4[nH]cc-3c2=O)c(Cl)c1 [Example 99]
1000 to 10000 | CN1CCN(CCCNC(=O)c2ccc(-n3nc4c5cccc(F)c5[nH]cc-4c3=O)cc2Cl)CC1 [Example 100]
1000 to 10000 | CCN(CC)CCCCNC(=O)c1ccc(-n2nc3c4cccc(F)c4[nH]cc-3c2=O)cc1Cl [Example 102]
1000 to 10000 | CN(C)CCCNC(=O)c1ccc(-n2nc3c4cccc(F)c4[nH]cc-3c2=O)c(Cl)c1 [Example 103]
< 1000 | O=C(NCCCCN1CCCC1)c1ccc(-n2nc3c4ccccc4[nH]c(C4CC4)c-3c2=O)cc1 [Example 104]
> 10000 | O=C(c1ccc(-n2nc3c4cccc(F)c4[nH]cc-3c2=O)cc1)N1CCN(Cc2ccc(Cl)cc2)CC1 [Example 105]
< 1000 | CN(CCCNC(=O)c1ccc(-n2nc3c4cccc(F)c4[nH]cc-3c2=O)cc1)c1ccccc1 [Example 106]
1000 to 10000 | CC1CCCCN1CCCNC(=O)c1ccc(-n2nc3c4cccc(F)c4[nH]cc-3c2=O)cc1Cl (stereo not shown) [Example 108]
< 1000 | CN(C)c1ccc(CNC(=O)c2ccc(-n3nc4c5cccc(F)c5[nH]cc-4c3=O)cc2)cc1 [Example 109]
1000 to 10000 | CN(C)CCCCNC(=O)c1ccc(-n2nc3c4cccc(F)c4[nH]cc-3c2=O)cc1Cl [Example 110]
1000 to 10000 | CN1CCN(C(=O)c2ccc(-n3nc4c5cccc(F)c5[nH]cc-4c3=O)cc2)CC1 [Example 111]
< 1000 | CC1CCCCN1CCCNC(=O)c1ccc(-n2nc3c4cccc(F)c4[nH]cc-3c2=O)cc1 (stereo not shown) [Example 112]
< 1000 | O=C(NCCN1CCOCC1)c1ccc(-n2nc3c4cccc(F)c4[nH]cc-3c2=O)cc1 [Example 113]
< 1000 | CCN1CCCC1CNC(=O)c1ccc(-n2nc3c4cccc(F)c4[nH]cc-3c2=O)cc1 (stereo not shown) [Example 114]
< 1000 | CN1C(C)(C)CC(NC(=O)c2ccc(-n3nc4c5cccc(F)c5[nH]cc-4c3=O)cc2)CC1(C)C [Example 115]
< 1000 | O=C(NC1CCN(Cc2ccccc2)CC1)c1ccc(-n2nc3c4cccc(F)c4[nH]cc-3c2=O)cc1 [Example 116]
< 1000 | CN(C)CC(C)(C)CNC(=O)c1ccc(-n2nc3c4cccc(F)c4[nH]cc-3c2=O)cc1 [Example 117]

EC50 [nM] | Compound
< 1000 | CC1(C)CC(NC(=O)c2ccc(-n3nc4c5cccc(F)c5[nH]cc-4c3=O)cc2)CC(C)(C)N1 [Example 118]
1000 to 10000 | O=C(NCCc1cccnc1)c1ccc(-n2nc3c4cccc(F)c4[nH]cc-3c2=O)cc1 [Example 119]
< 1000 | CCSCCNC(=O)c1ccc(-n2nc3c4cccc(F)c4[nH]cc-3c2=O)cc1 [Example 120]
1000 to 10000 | O=C(NCCCN1CCCC1=O)c1ccc(-n2nc3c4cccc(F)c4[nH]cc-3c2=O)cc1 [Example 121]
< 1000 | O=C(NCCCn1ccnc1)c1ccc(-n2nc3c4cccc(F)c4[nH]cc-3c2=O)cc1 [Example 122]
1000 to 10000 | O=C(NC1CCCCNC1=O)c1ccc(-n2nc3c4cccc(F)c4[nH]cc-3c2=O)cc1 (stereo not shown) [Example 123]
< 1000 | CCN(CC)CCCCNC(=O)c1ccc(-n2nc3c4cccc(F)c4[nH]cc-3c2=O)cc1 [Example 124]
< 1000 | O=C(NC1CCN(Cc2ccccc2)CC1)c1ccc(-n2nc3c4cccc(F)c4[nH]c(C4CC4)c-3c2=O)cc1 [Example 125]
> 10000 | O=C(NCCc1ccccn1)c1ccc(-n2nc3c4cccc(F)c4[nH]cc-3c2=O)cc1 [Example 127]
1000 to 10000 | CSCCCNC(=O)c1ccc(-n2nc3c4cccc(F)c4[nH]cc-3c2=O)cc1 [Example 128]
< 1000 | CN1C(C)(C)CC(NC(=O)c2ccc(-n3nc4c5ccccc5[nH]c(C5CC5)c-4c3=O)cc2)CC1(C)C [Example 129]
< 1000 | O=C(NCCCCN1CCCC1)c1ccc(-n2nc3c4cccc(F)c4[nH]c(C4CC4)c-3c2=O)cc1 [Example 130]
< 1000 | CN(C)CCCNC(=O)c1ccc(-n2nc3c4cccc(F)c4[nH]c(C4CC4)c-3c2=O)cc1 [Example 132]
< 1000 | CCN(CC)CCCCNC(=O)c1ccc(-n2nc3c4cccc(F)c4[nH]c(C4CC4)c-3c2=O)cc1 [Example 135]
1000 to 10000 | CC(C)(C)OC(=O)N1CCC(NC(=O)c2ccc(-n3nc4c5cccc(F)c5[nH]c(C5CC5)c-4c3=O)cc2)CC1 [Example 136]
< 1000 | O=C(NCCCN1CCN(Cc2c(F)cccc2Cl)CC1)c1ccc(-n2nc3c4cccc(F)c4[nH]c(C4CC4)c-3c2=O)cc1 [Example 137]
1000 to 10000 | O=C(NCCc1ccccn1)c1ccc(-n2nc3c4cccc(F)c4[nH]c(C4CC4)c-3c2=O)cc1 [Example 138]
> 10000 | O=C(NCCc1cccnc1)c1ccc(-n2nc3c4cccc(F)c4[nH]c(C4CC4)c-3c2=O)cc1 [Example 139]
< 1000 | CN(C)CC(C)(C)CNC(=O)c1ccc(-n2nc3c4cccc(F)c4[nH]c(C4CC4)c-3c2=O)cc1 [Example 140]
< 1000 | O=C(NCCCN1CCCC1)c1ccc(-n2nc3c4cccc(F)c4[nH]c(C4CC4)c-3c2=O)cc1 [Example 141]
< 1000 | CCOC(=O)CNC(=O)Nc1ccc(-n2nc3c4cccc(F)c4[nH]cc-3c2=O)cc1 [Example 142, {3-[4-(6-Fluoro-3-oxo-3,5-dihydro-pyrazolo[4,3-c]quinolin-2-yl)-phenyl]-ureido} acetic acid ethyl ester]

EC50 [nM] | Compound
< 1000 | CCCNC(=O)Nc1ccc(-n2nc3c4cccc(F)c4[nH]cc-3c2=O)cc1 [Example 145]
< 1000 | CC(C)(C)NC(=O)Nc1ccc(-n2nc3c4cccc(F)c4[nH]cc-3c2=O)cc1 [Example 146]
1000 to 10000 | O=C(Nc1ccccc1)Nc1ccc(-n2nc3c4cccc(F)c4[nH]cc-3c2=O)cc1 [Example 147]
1000 to 10000 | O=c1c2c[nH]c3c(F)cccc3c-2nn1-c1ccc(NC(=S)NC2CC2)cc1 [Example 148]
> 10000 | O=c1c2c[nH]c3c(F)cccc3c-2nn1-c1ccc(NC(=S)NC2CCCCC2)cc1 [Example 149]
< 1000 | CC(C)(C)OC(=O)Nc1ccc(-n2nc3c4cccc(F)c4[nH]cc-3c2=O)cc1 [Example 150]
1000 to 10000 | CCOC(=O)Nc1ccc(-n2nc3c4cccc(F)c4[nH]cc-3c2=O)cc1 [Example 151]
< 1000 | CN(C)CCOC(=O)Nc1ccc(-n2nc3c4cccc(F)c4[nH]cc-3c2=O)cc1 [Example 152]
1000 to 10000 | COC(=O)Nc1ccc(-n2nc3c4ccccc4[nH]c(C4CC4)c-3c2=O)cc1 [Example 153]
< 1000 | CN(C)CCCOC(=O)Nc1ccc(-n2nc3c4cccc(F)c4[nH]cc-3c2=O)cc1 [Example 154]
1000 to 10000 | O=C(Nc1ccc(-n2nc3c4cccc(F)c4[nH]cc-3c2=O)cc1)OC1CCN(Cc2ccccc2)CC1 [Example 155]
1000 to 10000 | CCCCCNC(=S)Nc1ccc(-n2nc3c4cccc(F)c4[nH]cc-3c2=O)cc1 [Example 156]
1000 to 10000 | CC(C)C(C)NC(=S)Nc1ccc(-n2nc3c4cccc(F)c4[nH]cc-3c2=O)cc1 (stereo not shown) [Example 157]
< 1000 | CCN(CC)CCCCNC(=O)Nc1ccc(-n2nc3c4cccc(F)c4[nH]cc-3c2=O)cc1 [Example 158]
< 1000 | CCCNC(=O)Nc1ccc(-n2nc3c4ccccc4[nH]cc-3c2=O)cc1 [Example 159]
1000 to 10000 | O=c1c2c[nH]c3ccccc3c-2nn1-c1ccc(NC(=S)NC2CC2)cc1 [Example 160]
< 1000 | CN(C)CCCNC(=O)Nc1ccc(-n2nc3c4cccc(F)c4[nH]cc-3c2=O)cc1 [Example 161]
< 1000 | COC(=O)[C@@H](NC(=O)Nc1ccc(-n2nc3c4ccccc4[nH]cc-3c2=O)cc1)C(C)C [Example 162]
< 1000 | CN(C)CCCCNC(=O)Nc1ccc(-n2nc3c4cccc(F)c4[nH]cc-3c2=O)cc1 [Example 163]
< 1000 | O=C(NCCCCN1CCCC1)Nc1ccc(-n2nc3c4cccc(F)c4[nH]cc-3c2=O)cc1 [Example 164]

Compound | EC50 [nM]
CN1C2CCC1CC(NC(=O)c1ccc(-n3nc4c5cccc(F)c5[nH]cc-4c3=O)cc1)C2 (stereo not shown) [Example 131] | < 1000
CN1C2CCC1CC(NC(=O)c1ccc(-n3nc4c5cccc(F)c5[nH]c(C5CC5)c-4c3=O)cc1)C2 (stereo not shown) [Example 134] | < 1000

Reference: patent US7291612B2, “Immunomodulatory compounds” (Active Biotech A.B., priority 2002, dated 2007)
